Measurements taken from article PMC10680098 (Nature, 2023).

How the values were obtained:
[1] = in vitro intrinsic clearance; format: in vitro ADME; conditions: metabolic stability, details in SI
[2] = solubility at different pH values; format: physicochemical; conditions: at all measured pH values
[3] = system: CFTR, cystic fibrosis transmembrane conductance regulator; experiment: CFTR rescue activity; format: cell-based; conditions: result given in words only; RC50 value is in Fig. 4b, which could not be read

SMILES | in vitro intrinsic clearance (CLint) [1] [μL/min/10^6 cells] | solubility compared to the parent benzene-containing drug [2] | activity (half-maximal rescue concentration, RC50) [3] | in vitro intrinsic clearance (CLint) ([1]; listed as Cuba-Lumacaftor) [μL/min/10^6 cells]
CCN(CC)CCNC(=O)C12C3C4C1C1C2C3C41NC(C)=O (stereo not drawn) [compound 58, Cuba-Acecainide] | < 7 |  |  | 
Cc1ccc(NC(=O)C2(c3ccc4c(c3)OC(F)(F)O4)CC2)nc1C12C3C4C5C3C1C5(C(=O)O)C42 (stereo not drawn) [compound 56, Cuba-Lumacaftor] | < 7 | improved solubility | high activity | 6.98
Cc1ccc(NC(=O)C2(c3ccc4c(c3)OC(F)(F)O4)CC2)nc1-c1cccc(C(=O)O)c1 [compound 57, reference compound] | 11.96 |  |  | 
